In ChEMBL document CHEMBL1201862, “PubChem BioAssay data set” (2004):
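Cultured in 96-well plates, cells were exposed to test compound for 48 hours across five concentrations. Abbreviation: GI50, concentration required for 50% inhibition of growth.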 Active and inactive are the calls of the source. Cut-off read from the data, not from the text of the source: active = GI50 up to about 1.1 µM and inactive = higher.

Tests used:
Assay in all cases: growth of human tumour cells (NCI), 48 h
MOLT-4 = tested on: MOLT-4
M14 = tested on: M14
SF-295 = tested on: SF-295
HOP-92 = tested on: HOP-92
SNB-19 = tested on: SNB-19
EKVX = tested on: EKVX
Malme-3M = tested on: Malme-3M
SK-MEL-28 = tested on: SK-MEL-28
COLO 205 = tested on: COLO 205
NCI-H460 = tested on: NCI-H460
RPMI-8226 = tested on: RPMI-8226
LOX IMVI = tested on: LOX IMVI
HT-29 = tested on: HT-29
SNB-75 = tested on: SNB-75
NCI-H226 = tested on: NCI-H226

Measured: GI50

C=CCn1c(=O)n(CC=C)c(=O)n(CC=C)c1=O
inactive: MOLT-4 > 100 µM | M14 > 100 µM | SF-295 > 100 µM | HOP-92 > 100 µM | SNB-19 > 100 µM | EKVX > 100 µM | Malme-3M > 100 µM | SK-MEL-28 > 100 µM | COLO 205 > 100 µM | NCI-H460 > 100 µM | RPMI-8226 > 100 µM | LOX IMVI > 100 µM

CC1(C2CCC3(C)OC3C2)CO1 (stereo not drawn)
inactive: HT-29 > 100 µM | MOLT-4 > 100 µM | SNB-75 > 100 µM | M14 > 100 µM | SF-295 > 100 µM | HOP-92 > 100 µM | SNB-19 > 100 µM | EKVX > 100 µM | Malme-3M > 100 µM | NCI-H226 > 100 µM | SK-MEL-28 > 100 µM | COLO 205 > 100 µM | NCI-H460 > 100 µM | RPMI-8226 > 100 µM | LOX IMVI > 100 µM

COc1ccc2ccccc2c1CN1CCOCCOCCN(Cc2c(OC)ccc3ccccc23)CCOCCOCC1
inactive: HT-29 > 20.3 µM | MOLT-4 > 49.8 µM | SNB-75 > 52.5 µM | M14 17.1 µM | SF-295 > 100 µM | HOP-92 > 27.9 µM | SNB-19 > 100 µM | EKVX > 100 µM | Malme-3M > 45.9 µM | NCI-H226 99.3 µM | SK-MEL-28 > 45.2 µM | COLO 205 > 90.4 µM | NCI-H460 25.4 µM | RPMI-8226 10.8 µM | LOX IMVI > 68.5 µM

CC(C)N(C(=O)C12C3C4C5(C(=O)O)C(C1C35I)C42C(=O)O)C(C)C (stereo not drawn)
inactive: HT-29 > 100 µM | MOLT-4 > 100 µM | SNB-75 29.1 µM | M14 > 100 µM | SF-295 > 100 µM | HOP-92 > 100 µM | SNB-19 > 100 µM | EKVX > 100 µM | Malme-3M > 100 µM | NCI-H226 > 100 µM | SK-MEL-28 > 100 µM | COLO 205 > 100 µM | NCI-H460 > 100 µM

COC(=O)c1nn(C(=N)c2ccc(Cl)cc2)c2c1CCCCC2
inactive: HT-29 > 100 µM | MOLT-4 > 100 µM | SNB-75 > 100 µM | M14 > 100 µM | SF-295 > 100 µM | HOP-92 > 100 µM | SNB-19 > 100 µM | Malme-3M > 100 µM | NCI-H226 > 100 µM | SK-MEL-28 > 100 µM | COLO 205 > 100 µM | NCI-H460 > 100 µM | RPMI-8226 > 100 µM | LOX IMVI > 100 µM

O=C(/C=C/c1ccc([N+](=O)[O-])cc1)c1ccc(NCc2nc3ccccc3[nH]2)cc1
inactive: HT-29 3.44 µM | MOLT-4 3.51 µM | SNB-75 3.93 µM | M14 11.5 µM | SF-295 3.86 µM | HOP-92 8.57 µM | SNB-19 3.56 µM | EKVX 7.69 µM | Malme-3M 14.2 µM | SK-MEL-28 13 µM | COLO 205 2.07 µM | NCI-H460 2.22 µM | LOX IMVI 2.43 µM

CCOP(=S)(OCC)Oc1ccc2c(c1)OC(=O)C1(Cl)C2(C)C2(Cl)C(=O)Oc3cc(OP(=S)(OCC)OCC)ccc3C12C (stereo not drawn)
inactive: HT-29 15.5 µM | MOLT-4 20.9 µM | SNB-75 16.1 µM | M14 17.7 µM | SF-295 14.7 µM | SNB-19 4.8 µM | EKVX 24.3 µM | Malme-3M 22.6 µM | NCI-H226 15.1 µM | SK-MEL-28 16.5 µM | COLO 205 19.1 µM | NCI-H460 17.5 µM | RPMI-8226 11.1 µM | LOX IMVI 19 µM

COC1=NCc2ccccc2-c2ccccc21
inactive: HT-29 > 100 µM | MOLT-4 > 100 µM | SNB-75 > 100 µM | SF-295 > 100 µM | SNB-19 > 100 µM | Malme-3M > 100 µM | NCI-H226 > 100 µM | SK-MEL-28 > 100 µM | NCI-H460 > 100 µM | LOX IMVI > 100 µM

COC(=O)C1=C(c2cc(OC)c(OC)c(OC)c2)OC(c2ccc(OC)c(OC)c2)C1 (stereo not drawn)
inactive: HT-29 38.7 µM | MOLT-4 18.9 µM | SNB-75 66.1 µM | M14 61.1 µM | SF-295 35.6 µM | HOP-92 42.5 µM | EKVX > 100 µM | Malme-3M > 100 µM | NCI-H226 96.6 µM | SK-MEL-28 79.8 µM | COLO 205 19.1 µM | NCI-H460 39.5 µM | RPMI-8226 75.2 µM | LOX IMVI 29.3 µM

CN(C)C(=S)/N=c1\ss/c(=N\S(=O)(=O)c2ccccc2)n1N(C)C
inactive: MOLT-4 > 100 µM | SNB-75 > 100 µM | M14 > 100 µM | SNB-19 > 100 µM | EKVX > 100 µM | Malme-3M > 100 µM | NCI-H226 > 100 µM | SK-MEL-28 > 100 µM | COLO 205 > 100 µM | NCI-H460 > 100 µM | RPMI-8226 62.7 µM

Oc1ccc2ccccc2c1/N=N/c1ccsc1
inactive: HT-29 66.8 µM | MOLT-4 > 100 µM | SNB-75 > 100 µM | M14 > 100 µM | SF-295 > 100 µM | HOP-92 > 100 µM | SNB-19 > 100 µM | Malme-3M > 100 µM | NCI-H226 > 100 µM | SK-MEL-28 > 100 µM | COLO 205 > 100 µM | NCI-H460 > 100 µM | RPMI-8226 > 100 µM | LOX IMVI > 100 µM

CN(C)NC(=O)NC12CC3CC(CC(C3)C1)C2
inactive: HT-29 > 100 µM | MOLT-4 > 100 µM | SNB-75 > 100 µM | SF-295 > 100 µM | HOP-92 > 100 µM | SNB-19 > 100 µM | EKVX > 100 µM | NCI-H226 > 100 µM | SK-MEL-28 > 10 µM | COLO 205 > 100 µM | NCI-H460 > 100 µM | RPMI-8226 > 100 µM | LOX IMVI > 100 µM

Cc1cc2c(cn1)C(=O)OCC2
inactive: HT-29 > 100 µM | MOLT-4 > 100 µM | SNB-75 > 100 µM | M14 > 100 µM | SF-295 > 100 µM | SNB-19 > 100 µM | EKVX > 100 µM | Malme-3M > 100 µM | NCI-H226 > 100 µM | SK-MEL-28 > 100 µM | NCI-H460 > 100 µM | RPMI-8226 > 100 µM | LOX IMVI > 100 µM

CC12C(=CC(=O)CC1SCCS(=O)(=O)O)C(C#N)=C(N)N2c1ccc(Cl)c(Cl)c1 (stereo not drawn)
inactive: HT-29 > 100 µM | MOLT-4 > 100 µM | SNB-75 > 100 µM | SF-295 > 100 µM | HOP-92 30.6 µM | SNB-19 > 100 µM | EKVX > 100 µM | NCI-H226 > 100 µM | SK-MEL-28 > 100 µM | COLO 205 > 100 µM | NCI-H460 10 µM | RPMI-8226 > 100 µM | LOX IMVI > 100 µM

COc1cccc(/C=N/[N-]C(=S)Nc2ccccc2)c1[O-].O.[Zn+2]
inactive: HT-29 72.4 µM | MOLT-4 28.6 µM | SNB-75 43.7 µM | M14 44.5 µM | SF-295 76.7 µM | HOP-92 73.5 µM | SNB-19 66.1 µM | EKVX 49.1 µM | Malme-3M 86.5 µM | NCI-H226 37.8 µM | SK-MEL-28 > 100 µM | NCI-H460 50.9 µM | RPMI-8226 66.8 µM | LOX IMVI 53.7 µM
